The assay addresses mouse TRPM3α2 (mTRPM3) ion channel (Mus musculus (Mouse), UniProt J9SQF3). Put plainly: TRPM3 ion channel driven Ca2+ uptake, Fluo-4 AM assay, mTRPM3alpha2 overexpressing flip-in HEK293 cells stimulated with pregnenolone sulfate. It is filed as cell-based. The method in brief:
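Read-out is Ca2+ influx via Fluo-4 AM fluorescence at 485/535 nm, taken right after seeding ~2000 cells/well onto compound with 50 μM PS. Inhibition computed from RFU between vehicle-stimulated and positive-control-inhibitor wells; cells were mTRPM3α2-overexpressing flip-in HEK293.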

[1] abbreviates: PS (50 μM) stimulated, cpds. 608-666.
Where [2] appears, read: PS (50 μM) stimulated, cpds. 667-751.
Setting [3] is: PS (50 μM) stimulated, cpds. 500-599.
Setting [4] is: PS (50 μM) stimulated, cpd 001-199.
Setting [5] is: PS (50 μM) stimulated, cpds. 400-499.

Bounds are passed on as bounds.

mouse TRPM3α2 (mTRPM3) ion channel, sequence (J9SQF3 other isoform, or with tags, fused parts or gaps): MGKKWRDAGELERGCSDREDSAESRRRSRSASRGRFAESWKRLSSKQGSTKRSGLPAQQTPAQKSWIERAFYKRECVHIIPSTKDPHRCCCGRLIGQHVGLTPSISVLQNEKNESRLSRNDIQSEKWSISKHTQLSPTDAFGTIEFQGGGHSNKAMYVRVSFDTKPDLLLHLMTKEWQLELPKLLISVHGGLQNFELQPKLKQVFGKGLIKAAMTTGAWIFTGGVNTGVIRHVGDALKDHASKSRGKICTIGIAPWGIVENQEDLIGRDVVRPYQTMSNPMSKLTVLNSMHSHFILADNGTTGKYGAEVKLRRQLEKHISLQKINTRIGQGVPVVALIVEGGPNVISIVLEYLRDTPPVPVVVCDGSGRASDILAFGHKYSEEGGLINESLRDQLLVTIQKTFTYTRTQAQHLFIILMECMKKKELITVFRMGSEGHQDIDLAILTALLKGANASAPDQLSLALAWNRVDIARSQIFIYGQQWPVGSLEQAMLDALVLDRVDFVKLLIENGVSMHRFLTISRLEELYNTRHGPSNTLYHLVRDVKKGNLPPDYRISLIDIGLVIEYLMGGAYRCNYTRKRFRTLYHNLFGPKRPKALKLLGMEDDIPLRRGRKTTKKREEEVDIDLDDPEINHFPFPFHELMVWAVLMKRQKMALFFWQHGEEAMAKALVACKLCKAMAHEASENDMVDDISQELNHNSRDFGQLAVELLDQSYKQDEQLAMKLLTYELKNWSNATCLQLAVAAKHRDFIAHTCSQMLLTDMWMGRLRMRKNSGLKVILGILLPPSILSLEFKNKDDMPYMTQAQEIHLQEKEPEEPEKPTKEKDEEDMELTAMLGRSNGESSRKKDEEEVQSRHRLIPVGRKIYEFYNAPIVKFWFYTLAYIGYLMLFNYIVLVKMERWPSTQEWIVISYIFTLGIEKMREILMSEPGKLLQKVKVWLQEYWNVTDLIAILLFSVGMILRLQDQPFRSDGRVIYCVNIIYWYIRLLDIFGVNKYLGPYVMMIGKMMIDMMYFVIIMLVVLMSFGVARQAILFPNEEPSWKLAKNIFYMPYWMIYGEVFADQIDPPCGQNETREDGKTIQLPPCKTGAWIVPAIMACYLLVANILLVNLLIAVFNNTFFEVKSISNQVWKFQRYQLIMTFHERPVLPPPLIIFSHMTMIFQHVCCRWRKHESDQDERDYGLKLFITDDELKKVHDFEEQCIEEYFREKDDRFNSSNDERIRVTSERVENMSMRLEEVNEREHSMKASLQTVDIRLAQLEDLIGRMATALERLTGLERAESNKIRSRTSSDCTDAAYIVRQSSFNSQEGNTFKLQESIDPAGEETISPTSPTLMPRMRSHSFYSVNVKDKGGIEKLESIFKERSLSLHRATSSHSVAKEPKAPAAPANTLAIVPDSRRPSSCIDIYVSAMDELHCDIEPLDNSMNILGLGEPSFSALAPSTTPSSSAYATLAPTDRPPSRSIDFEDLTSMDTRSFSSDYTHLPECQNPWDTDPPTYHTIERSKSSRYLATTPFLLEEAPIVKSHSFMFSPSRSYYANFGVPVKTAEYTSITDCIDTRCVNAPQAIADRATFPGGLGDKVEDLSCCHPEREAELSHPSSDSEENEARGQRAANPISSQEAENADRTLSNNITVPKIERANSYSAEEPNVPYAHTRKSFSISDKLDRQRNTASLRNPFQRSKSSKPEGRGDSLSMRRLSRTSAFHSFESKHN

By IC50 is commonly meant the midpoint of a concentration-inhibition curve. Under setting [1], `Cc1oc2ccc(OCc3cccnn3)cc2c1C(=O)NC1(CO)CCOCC1` [compound 624, N-(4-(hydroxymethyl)tetrahydro-2H-pyran-4-yl)-2-methyl-5-(pyridazin-3-ylmethoxy)benzofuran-3-carboxamide] showed an IC50 below 1 µM.

`Cc1ncc(COc2ccc3oc(C4CC4)c(C(=O)N[C@@H](CO)C(N)=O)c3c2)s1` [compound 749, (S)-N-(1-Amino-3-hydroxy-1-oxopropan-2-yl)-2-cyclopropyl-5-((2-methylthiazol-5-yl)methoxy)benzofuran-3-carboxamide] gave an IC50 under setting [2] below 1 µM.

Compound `Cc1ccc(COc2ccc3oc(C)c(C(=O)NC4CCNCC4(F)F)c3c2)nn1` (single isomer, unassigned) [cpd 556-En 2] returned a concentration for half-maximal inhibition (IC50) under setting [3] above 20 µM.

Under “PS 50 μM, cpds 300-399”, `Cc1ncc(COc2ccc3oc(C)c(C(=O)N[C@@H]4C(=O)NC[C@H]4O)c3c2)s1` [compound 391, N-((3S,4R)-4-hydroxy-2-oxopyrrolidin-3-yl)-2-methyl-5-((2-methylthiazol-5-yl)methoxy)benzofuran-3-carboxamide] displayed an IC50 below 1 µM.

On to `Cc1ncsc1COc1ccc2oc(C)c(C(=O)NC3(CO)CCOCC3)c2c1F` [compound 177, 4-fluoro-N-(4-(hydroxymethyl)tetrahydro-2H-pyran-4-yl)-2-methyl-5-((4-methylthiazol-5-yl) -methoxy)benzofuran-3-carboxamide], for which the half-maximal inhibitory concentration (IC50) under setting [4] is below 1 µM.

Turning to `Cc1oc2ccc(OCc3cccnc3C(F)(F)F)cc2c1C(=O)NC(C)(C)CCO` [compound 651, N-(4-hydroxy-2-methylbutan-2-yl)-2-methyl-5-((2-(trifluoromethyl)pyridin-3-yl)methoxy)benzofuran-3-carboxamide], the IC50 under setting [1] is below 1 µM.

In turn, `COc1cccc(COc2ccc3oc(C)c(C(=O)NC4CCNCC4(F)F)c3c2)n1` (single isomer, unassigned) [cpd 570-En 2] displayed an IC50 under setting [3] of 1 to 20 µM.

Compound `Cc1oc2ccc(OCc3cccs3)cc2c1C(=O)NC1CCN(C)CC1` [compound 041, 2-methyl-N-(1-methylpiperidin-4-yl)-5-(thiophen-2-ylmethoxy)benzofuran-3-carboxamide] registered an IC50 under setting [4] below 1 µM.

For the compound `Cc1oc2ccc(OCc3ccccn3)cc2c1C(=O)NC(C)(CO)C(N)=O` (single isomer, unassigned) [cpd 738-En 1], the concentration for half-maximal inhibition (IC50) under setting [2] is below 1 µM.

For the compound `Cc1nc(C)c(COc2ccc3oc(C)c(C(=O)N[C@H](C(N)=O)[C@@H](C)O)c3c2)s1` [compound 382, N-((2S,3R)-1-amino-3-hydroxy-1-oxobutan-2-yl)-5-((2,4-dimethylthiazol-5-yl)methoxy)-2-methylbenzofuran-3-carboxamide], the IC50 (PS 50 μM, cpds 300-399) is below 1 µM.

On to `Cc1oc2ccc(OCc3cccnn3)cc2c1C(=O)NC1CCNCC1(F)F` (single isomer, unassigned) [cpd 557-En 1], for which, under setting [3], the IC50 is below 1 µM.

For the compound `Cc1oc2ccc(OCc3cccnc3C(F)(F)F)cc2c1C(=O)NC1(CO)CCOCC1` [compound 072, N-(4-(hydroxymethyl)tetrahydro-2H-pyran-4-yl)-2-methyl-5-((2-(trifluoromethyl)pyridin-3-yl) -methoxy)benzofuran-3-carboxamide], the half-maximal inhibitory concentration (IC50) under setting [4] is below 1 µM.

The compound `Cc1ncc(COc2ccc3oc(C)c(C(=O)NC4(CO)CCC4)c3c2)s1` [compound 414, N-(1-(hydroxymethyl)cyclobutyl)-2-methyl-5-((2-methylthiazol-5-yl)methoxy)benzofuran-3-carboxamide] registered a concentration for half-maximal inhibition (IC50) under setting [5] below 1 µM.

Under setting [4], `Cc1oc2ccc(OCc3cccnc3C(F)(F)F)cc2c1C(=O)NC1(CCO)COC1` [compound 129, N-(3-(2-hydroxyethyl)oxetan-3-yl)-2-methyl-5-((2-(trifluoromethyl)pyridin-3-yl)methoxy) -benzofuran-3-carboxamide] showed an IC50 below 1 µM.

Under setting [3], `Cc1coc(COc2ccc3oc(C)c(C(=O)NC4CCNCC4(F)F)c3c2)n1` (single isomer, unassigned) [cpd 551-En 1] gave an IC50 below 1 µM.

As to `Cc1oc2ccc(OCc3ccnn3CC(F)F)cc2c1C(=O)NC1(CO)CCCNC1=O` (single isomer, unassigned) [332-En 1, 5-((1-(2,2-difluoroethyl)-1H-pyrazol-5-yl)methoxy)-N-(3-(hydroxymethyl)-2-oxopiperidin-3-yl)-2-methylbenzofuran-3-carboxamide], the IC50 (PS 50 μM, cpds 300-399) is below 1 µM.

`Cc1oc2ccc(OCc3cnnn3C)cc2c1C(=O)NC1CCNCC1(F)F` (single isomer, unassigned) [cpd 541-En 1] came in with an IC50 under setting [3] of 1 to 20 µM.

Regarding `CNC(=O)C1(NC(=O)c2c(C)oc3ccc(OCc4scnc4C)cc23)CCC1` [compound 319, 2-methyl-N-(1-(methylcarbamoyl)cyclobutyl)-5-((4-methylthiazol-5-yl)methoxy)benzofuran-3-carboxamide], the IC50 (PS 50 μM, cpds 300-399) was below 1 µM.

For the compound `Cc1oc2ccc(OCc3ccc4cnccc4c3)cc2c1C(=O)NC1CCN(C)CC1` [compound 061, 5-(isoquinolin-6-ylmethoxy)-2-methyl-N-(1-methylpiperidin-4-yl)benzofuran-3-carboxamide], the concentration for half-maximal inhibition (IC50) under setting [4] is above 20 µM.

On to `Cc1oc2ccc(OCc3nccs3)cc2c1C(=O)NC1CCNCC1(F)F` (single isomer, unassigned) [cpd 560-En 2], for which, under setting [3], the IC50 is below 1 µM.

For `Cc1cnc(COc2ccc3oc(C)c(C(=O)N[C@@H](CO)C(N)=O)c3c2)s1` [compound 684, (S)-N-(1-Amino-3-hydroxy-1-oxopropan-2-yl)-2-methyl-5-((5-methylthiazol-2-yl)methoxy)benzofuran-3-carboxamide], under setting [2], the IC50 was below 1 µM.

For the compound `Cc1oc2ccc(OCc3nccs3)cc2c1C(=O)N[C@H]1CCNC1` [compound 025, (S)-2-methyl-N-(pyrrolidin-3-yl)-5-(thiazol-2-ylmethoxy)benzofuran-3-carboxamide], under setting [4], the IC50 was below 1 µM.

In the case of `Cc1oc2ccc(OCc3c[nH]nc3C(F)(F)F)cc2c1C(=O)N[C@@H](CO)C(N)=O` [compound 286, (S)-N-(1-amino-3-hydroxy-1-oxopropan-2-yl)-2-methyl-5-((3-(trifluoromethyl)-1H-pyrazol-4-yl)methoxy)benzofuran-3-carboxamide], the half-maximal inhibitory concentration (IC50) (PS 50 μM, cpds 200-299) is below 1 µM.

Compound `Cc1oc2ccc(OCc3cccnc3O)cc2c1C(=O)NC(C)(C)CO` [compound 485, N-(1-hydroxy-2-methylpropan-2-yl)-5-((2-hydroxypyridin-3-yl)methoxy)-2-methylbenzofuran-3-carboxamide] came in with an IC50 under setting [5] below 1 µM.

As for `Cc1oc2ccc(OCc3ncccn3)cc2c1C(=O)N[C@@H](CO)C(N)=O` [compound 712, (S)-N-(1-Amino-3-hydroxy-1-oxopropan-2-yl)-2-methyl-5-(pyrimidin-2-ylmethoxy)benzofuran-3-carboxamide], the IC50 under setting [2] was below 1 µM.

In turn, `Cc1cnc(COc2ccc3oc(C)c(C(=O)NC4CCNCC4(F)F)c3c2)s1` (single isomer, unassigned) [cpd 555-En 2] came in with an IC50 under setting [3] of 1 to 20 µM.

Compound `Cc1oc2ccc(OCc3cccnc3C(F)(F)F)cc2c1C(=O)NC1CCNCC1(F)F` (single isomer, unassigned) [cpd 546-En 1] came in with an IC50 under setting [3] below 1 µM.

On to `Cc1ccc(COc2ccc3oc(C)c(C(=O)NC4(CO)CCOCC4)c3c2)nn1` [compound 621, N-(4-(hydroxymethyl)tetrahydro-2H-pyran-4-yl)-2-methyl-5-((6-methylpyridazin-3-yl)methoxy)benzofuran-3-carboxamide], for which the IC50 under setting [1] is above 20 µM.

Take `Cc1ncsc1COc1ccc2oc(C)c(C(=O)NC3(C(N)=O)COC3)c2c1F` [compound 583, N-(3-carbamoyloxetan-3-yl)-4-fluoro-2-methyl-5-((4-methylthiazol-5-yl)methoxy)benzofuran-3-carboxamide]: the IC50 under setting [3] was below 1 µM.

Under setting [5], `Cc1ncc(COc2ccc3oc(C)c(C(=O)NC(C)CO)c3c2)s1` (single isomer, unassigned) [cpd 490-En 1] showed an IC50 below 1 µM.

The compound `Cc1oc2ccc(OCc3c[nH]nc3C(F)(F)F)cc2c1C(=O)NC1(CO)CCOCC1` [compound 615, N-(4-(hydroxymethyl)tetrahydro-2H-pyran-4-yl)-2-methyl-5-((3-(trifluoromethyl)-1H-pyrazol-4-yl)methoxy)benzofuran-3-carboxamide] came in with a 50% inhibitory concentration (IC50) under setting [1] below 1 µM.

Under setting [4], `Cc1oc2ccc(OCC3CCOCC3)cc2c1C(=O)O` [compound 015, 2-methyl-5-((tetrahydro-2H-pyran-4-yl)methoxy)benzofuran-3-carboxylic acid] came in with an IC50 above 20 µM.

For the compound `Cc1ccc(COc2ccc3oc(C)c(C(=O)N[C@H](C(N)=O)[C@@H](C)O)c3c2)cn1` [compound 380, N-((2S,3R)-1-amino-3-hydroxy-1-oxobutan-2-yl)-2-methyl-5-((6-methylpyridin-3-yl)methoxy)benzofuran-3-carboxamide], for the setting “PS 50 μM, cpds 300-399”, the IC50 is below 1 µM.

The compound `Cc1ncsc1COc1ccc2oc(C3CC3)c(C(=O)N[C@@H](CO)C(N)=O)c2c1` [compound 748, (S)-N-(1-Amino-3-hydroxy-1-oxopropan-2-yl)-2-cyclopropyl-5-((4-methylthiazol-5-yl)methoxy)benzofuran-3-carboxamide] yielded an IC50 under setting [2] below 1 µM.

As to `CNC(=O)[C@@H](CO)NC(=O)c1c(C)oc2ccc(OCc3scnc3C)cc12` [compound 276, (R)-N-(3-hydroxy-1-(methylamino)-1-oxopropan-2-yl)-2-methyl-5-((4-methylthiazol-5-yl)methoxy)benzofuran-3-carboxamide], for the setting “PS 50 μM, cpds 200-299”, the 50% inhibitory concentration (IC50) was below 1 µM.

Take `Cc1oc2ccc(OCc3ccnn3C)cc2c1C(=O)NC1COCC1(F)F` (single isomer, unassigned) [cpd 642-En 1]: the concentration for half-maximal inhibition (IC50) under setting [1] is below 1 µM.

With `Cc1oc2ccc(OCc3cncs3)cc2c1C(=O)N[C@@H](CO)C(N)=O` [compound 697, (S)-N-(1-Amino-3-hydroxy-1-oxopropan-2-yl)-2-methyl-5-(thiazol-5-ylmethoxy)benzofuran-3-carboxamide], the IC50 under setting [2] is below 1 µM.

Source of the values: US12209081B2 (Katholieke Universiteit Leuven, priority 2020, dated 2025).
